Assay results taken from the Kinase Knowledgebase extract (Sharma et al. 2016).
pIC50: −log10 of the molar value. Values joined by “and” are separate entries in the source; they are usually repeats but may differ in a detail not shown here. Equal entries are not always repeated. Values belong to the compound of their own block, whether it stands above or below them.

Columns and labels:
MAPK14 (human) = MAPK14 (human) (UniProt Q16539); assay: p38 --- TNFalpha Release Inhibition; settings: monocyte
MAPK14 (human), sequence (Q16539 whole entry, looked up): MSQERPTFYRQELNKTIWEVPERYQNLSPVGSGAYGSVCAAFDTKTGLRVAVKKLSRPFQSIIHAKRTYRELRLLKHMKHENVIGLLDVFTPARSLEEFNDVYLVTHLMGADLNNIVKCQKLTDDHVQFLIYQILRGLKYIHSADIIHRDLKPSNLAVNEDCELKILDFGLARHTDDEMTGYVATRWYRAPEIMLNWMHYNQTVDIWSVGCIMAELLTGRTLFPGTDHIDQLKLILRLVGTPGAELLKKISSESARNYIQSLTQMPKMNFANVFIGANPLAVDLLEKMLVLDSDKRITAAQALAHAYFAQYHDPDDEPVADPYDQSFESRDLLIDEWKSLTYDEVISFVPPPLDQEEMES

MAPK14 (Lewis rat) = assay: Adjuvant-Induced Arthritis Model
MAPK14 = MAPK14 (UniProt Q16539); assay: p38-alpha Inhibition
MAPK14, sequence (Q16539 whole entry, looked up): as above

SMILES: C[S+]([O-])c1ccc(-c2cc(-c3ccncc3)c(-c3ccc(F)cc3)[nH]2)cc1 (stereo not given)
pIC50 (MAPK14 (human)): 7.19
ID50 (MAPK14 (Lewis rat)): 7.4 mg/kg/day
score (MAPK14 (Lewis rat)): 3.6 and 1.6

SMILES: CS(=O)(=O)c1ccc(-c2cc(-c3ccncc3)c(-c3ccc(F)cc3)[nH]2)cc1
pIC50 (MAPK14 (human)): 7.64

SMILES: Fc1ccc(-c2[nH]c(-c3ccc(Cl)cc3)cc2-c2ccccn2)cc1
pIC50 (MAPK14): < 5.00

SMILES: CC(C)(C)Oc1ccc(-c2[nH]c(-c3ccccc3)cc2-c2ccncc2)cc1
pIC50 (MAPK14): < 6.00

SMILES: COc1ccc2c(c1)c(CC(=O)O)c(C)n2C(=O)c1ccc(Cl)cc1
score (MAPK14 (Lewis rat)): 4.9 and 2.9

Results, then the compound that gave them:

inhibition (MAPK14; concentration not given here): 43%
SMILES: O=c1c(-c2ccncc2)c(-c2ccc(F)cc2)[nH]n1-c1ccc(Cl)cc1

pIC50 (MAPK14): 7.00
SMILES: Fc1ccc(-c2[nH]c(-c3ccc(Br)cc3)cc2-c2ccncc2)cc1

pIC50 (MAPK14): < 5.00
SMILES: CCOC(=O)c1ccc(-c2[nH]c(-c3ccccc3)cc2-c2ccncc2)cc1
